In patent publication US5530157A, “Anti-inflammatory benzoic acid derivatives” (Scios Nova Inc., priority 1995, dated 1996):
Where two headings read alike, the source gives them in different places.

Assays:
[1] = system: polymorphonuclear neutrophils; test: Adherence of PMN to serum coated wells, TNF-α; format: cell-based; details: Homo sapiens, Polymorphonuclear neutrophil, 20 min, TNF-α 3 nM, read-out: IC50 to inhibit adhesion, TNF-α serum
Source text: (§1) Several in vitro assays were employed to determine the ability of compounds of the invention to function as anti-inflammatory agents. One group of assays measured the ability of the compounds to inhibit adherence of polymorphonuclear neutrophils to serum coated wells (in the presence of either TNF-α or PAF) or to human umbilical vein endothelial cells (in the presence of INF-γ). Another group of assays measured the ability of the compounds to inhibit the release of elastase or superoxide from activated neutrophils. These assays were performed in the following manner.
(§2) Isolation of PMN: Blood was drawn into syringes containing heparin (1 U/mL), from human volunteers (free of any medication for at least 48 hrs). 30 mL of blood was layered over a gradient of 10 mL 1.077 g/mL Histpaque (Sigma, St. Louis, Mo.), and centrifuged at room temperature, 400×g for 20 min. All subsequent manipulations were carried out at room temperature, with endotoxin free reagents, and using polypropylene pipettes and tubes, to prevent activation of the PMN. The pinkish PMN layer immediately above the RBC was collected and washed 2× with Hank's buffered salt solution with calcium and magnesium, 0.2% glucose, and 10 mM HEPES, pH 7.2 (HBSS++) by centrifugation at 400×g for 10 min. Pellets were suspended in 8 mL 0.9% NaCl, and RBC lysed by the addition of 24 mL water for 40 sec, followed by the addition of 8 mL of 3.6% NaCl. After centrifugation at 200×g for 8 min, RBC ghosts were aspirated from the top of the PMN pellet, and cells washed with HBSS++. PMN adherence to protein substrates: 96 well tissue culture plates were coated with 10% pooled human serum (North American Biological,;, Miami, Fla.) in phosphate buffered saline (PBS) for 1 hr at 37° C., followed by washing 3× with PBS. Test compounds were prepared in DMSO as 100× stocks. PMN (4×10^6 /mL) were preincubated with test compounds for 10 min at 37° C. in serum-coated wells. Tumor necrosis factor (TNF-α) was added to 3 nM or platelet aggregation facor (PAF) to 1 μM, and adherence was carried out for 20 or 10 min, respectively. Nonadherent cells were aspirated, and wells washed two times with warm PBS with calcium and magnesium, with blotting of the inverted plate following each aspiration. Adherent PMN were quantitated using a BCA protein assay (Pierce, Rockford, Ill.).

[2] = system: polymorphonuclear neutrophils; test: Adherence of PMN to serum coated wells, PAF; format: cell-based; details: Homo sapiens, Polymorphonuclear neutrophil, 10 min, PAF 1 μM, read-out: IC50 to inhibit adhesion, PAF serum
Source text: as §1, §2

[3] = system: human umbilical vein endothelial cells; test: INF-γ HUVEC assay: adherence of PMN to human umbilical vein endothelial cells; format: cell-based; details: HUVECs with INF-γ 1 unit/mL 20 hrs, PMN activated with 50 ng/mL TNF, read-out: IC50 to inhibit adhesion, IFN-γ HUVECS
Source text: as §1, §2
INF-γHUVEC Assay. Primary human umbilical vein endothelial cells (HUVECs) from Clonetics Corp. (San Diego, Calif.) were seeded at 20,000 cells per wall in a 96 well tissue culture plate that was coated with fibronectin, for 45 min and then twice rinsed with phosphate buffered saline. To the culture media (M199, 80%; FBS, 20%; […] endothelial cell growth factor (Maciag et all, Proc. Natl. Acad. Sci. USA (1979) 76(11):5674-5678), 0.1 mg/mL heparin; 5% CO2; 37° C.) was added INF-γ (R&D Systems) at 1 unit/mL for 20 hrs. Isolated PMNs were loaded with the fluorescent dye BCECF AM (Molecular Probes) by incubating 1×10^7 cells/mL in HBSS with 4 μM dye for 30 min at 37° C. The PMNs were incubated with test compound for 10 min at 37° C., then activated with 50 ng/mL TNF and immediately added to the HUVECs which had been rinsed twice with HBSS+1% human serum. The co-culture plate was incubated at 37° C. for 20 min followed by gentle washing (twice) with HBSS+1% human serum. The extent of adherence was assessed by measuring the amount of fluorescence (485-535 nm filter) in each well with a fluorescence plate reader (Idexx).

neutrophils [4] = test: Elastase release from neutrophils, fMLP; format: cell-based; details: Homo sapiens, Neutrophil; fMLP 200 nM, cytochalasin b; read-out: IC50 to inhibit elastase release, fMLP/ER
Source text: as §1
(§3) Elastase release. Neutrophils (5×10^6 /ml in HBSS) were preincubated for 5 min at 37° C. with cytochalasin b (5 μg/ml). Experiments were performed in microtubes (96 per rack) to which were added the cell suspension, test compound (50 nM-500 μM), and one of several activators (fMLP, 200 nM, C5a, 24 nM; PAF, 20nM). After incubation (30 min, 37° C.) the tubes were centrifuged (1 min, 1500 rpm) and the supernatants assayed for elastase activity according to the following protocol:
(§4) Specifically, 10 μl of purified human neutrophil elastase standard or of sample was added to 70 μl or 0.1M Tris pH 7.5, 0.5% Brij detergent and 10 μl or 5 mM elastase substrate (methoxysuccinyl-alanyl-alanyl-prolyl-valyl paranitroanilide) in a 96 well microliter plate. Plates were indubated for 60 min at 37° C. and absorbance was read at 410 nm on a microplate reader. Elastase activity was quantitated relative to standards.

neutrophils [5] = test: Elastase release from neutrophils, PAF; format: cell-based; details: Homo sapiens, Neutrophil; PAF 20 nM, cytochalasin b; read-out: IC50 to inhibit elastase release, PAF/ER
Source text: as §1, §3, §4

neutrophils [6] = test: Superoxide production by PMN, fMLP; format: cell-based; details: Homo sapiens, Neutrophil; fMLP 300 nM, TNF preincubation; read-out: IC50 to inhibit superoxide production, fMLP/O2
Source text: as §1
(§5) Superoxide production. Superoxide production by PMN was measured as the superoxide dismutase (SOD)-inhibitable reduction of ferricytochrome c. […] Therefore, subsequent experiments were performed in the presence of cytochrome c only. In all cases, experiments were carried out in 96 well plates. Before the addition of cells, plates were coated by incubating each well with 200 μl of 10% human serum for 1 h in 37° C. Plates were then washed several times with PBS containing 10 mM CaCl2 and MgCl2. Neutrophils, resuspended in Hank's balanced salt solution (HBSS) to a final concentration of 4×10^6 cells/ml, were preincubated with TNF (10 ng/ml) for 10 min at 37° C. in the presence of cytochrome c (75 μm). Experiments were then performed with 100 μl of this cell suspension added to each well, followed by the addition of 10 μl of an aqueous dilution of test compound (50 nm-[…]). Immediately after the addition of test compound, a 10 μl aliquot of activators (fMLP, 300 nM; PAF, 20 nM; C5a, 5 μg/ml) was added to each well. Plates were immediately transferred to a preheated Thermomax kinetic microplate reader and the change in absorbance at […] was recorded over a 3 min period.

neutrophils [7] = test: Superoxide production by PMN, PAF; format: cell-based; details: Homo sapiens, Neutrophil; PAF 20 nM, TNF preincubation; read-out: IC50 to inhibit superoxide production, PAF/O2
Source text: as §1, §5

[8] = system: neutrophil accumulation in thioglycollate-induced peritonitis; test: Neutrophil accumulation in thioglycollate-induced peritonitis in the mouse; format: in vivo, Male CF-1 mice; details: for ED50: iv
Method: (§6) Two in vivo models of inflammation were used to assess the anti-inflammatory activity of compounds of the invention. One model measures neutrophil accumulation in thioglycollate-induced peritonitis in mice. The other measures neutrophil accumulation in the cutaneous Reverse Passive Arthus reaction in rats. These assays were carried out as follows.
Male CF-1 mice were pretreated with individual test compound (4-6 mice per compound) 10 min prior to thioglycollate treatment. Test compounds at various doses, solubilized in 1% Tween, pH 9.0, were injected into the tail vein. Thioglycollate (4% Brewer's thioglycollate broth in water) was administered intraperitoneally in 1 ml volume. Peritoneal lavages, performed 4 hrs following thioglycollate treatment, involved injecting 5 ml of Dulbecco's phosphate buffered saline with 0.1% bovine serum albumin and 10 units/ml heparin into the peritoneal cavity, massaging the peritoneum, and then removing fluid through peritoneal aspiration. The lavage fluid was centrifuged, red blood cells lysed with water, cells were resuspended in Hank's balanced salt solution, and leukocytes were counted with a modified Neubauer hemacytometer. Leukocyte preparations (cytospin slides) were differentially stained with a Giemsa stain. Neutrophil accumulation expressed as a percent of control was calculated after the subtraction of baseline neutrophils from all treatement groups (see Table III).

[9] = system: neutrophil accumulation in the cutaneous Reverse Passive Arthus reaction; test: Neutrophil accumulation in the cutaneous Reverse Passive Arthus reaction in rats; format: in vivo, Male Sprague Dawley rats; details: rat, i.p.; for Reverse Passive Arthus % Inhibition: 1.4 mg/kg, n = 4; for ED50: Neutrophil, ip, 4 h, Reverse Passive Arthus, read-out: ID50 (the source's name)
Method: as §6
Male Sprague Dawley rats were treated with test compounds by intraperitoneal injection of 1.4 mg/kg in 1% Tween, pH 9.0 vehicle. After 1 hr, animals were lightly anesthetized with 2% isoflurane, v/v, injected by intravenous route with 1 ml of 5 mg/ml human serum albumin, immediately follwed by intracutaneous administration of 75 μl of a solution of 4 mg/ml of goat anti-human serum albumin. Animals were anesthetized 4 hrs after antigen-antibody treatment. Punch biopsies of the dorsal injection sites were performed with one biopsy weighed for wet/dry weight ratio determination. The remaining two skin biopsies were used for measuring myeloperoxidase content and were minced, weighed and homogenized for 30 sec in 20 mM phosphate buffer (pH 7.4). After centrifugation (20 min, 6000×g, 4° C.) the supernatant was decanted and the pellet resuspended in 50 mM phosphate buffer (pH 6.0) containing 0.5% hexadecyltrimethylammonium bromide. After three freeze/thaw cycles, the pellet was centrifuged (15 min, 20000×g, 4° C.) and 100 μl aliquots were added to 2.9 ml of assay buffer (50 mM phosphate buffer, 0.167 mg/ml o-dianiside, 0.05% H2 O2, pH 6.0). Absorbance at 460 nm was measured at 15 min. Results shown in Table IV were calculated as absorbance units/g dry weight.

[10] = Neutrophil, mouse, i.v., thioglycollate-induced peritonitis, 4 hrs, read-out: ED50

IC50 [1] | IC50 [2] | IC50 [3] | IC50 (neutrophils [4]) | IC50 (neutrophils [5]) | IC50 (neutrophils [6]) | IC50 (neutrophils [7]) | SMILES | ED50 [8, 10] | % Inhibition of neutrophil accumulation ([8]; mouse, i.v., 3 mg/kg, 4 hrs) | % Inhibition of neutrophil accumulation ([8]; mouse, i.v., 10 mg/kg, 4 hrs) | % Inhibition of neutrophil accumulation ([8]; mouse, i.v., 30 mg/kg, 4 hrs) | Reverse Passive Arthus % Inhibition [9] | % Inhibition of neutrophil accumulation ([8]; mouse, i.v., 60 mg/kg, 4 hrs) | ED50 [9] | ED50 ([8]; 4 h) | % Inhibition of neutrophil accumulation ([8]; mouse, i.v., 0.3 mg/kg, 4 hrs) | % Inhibition of neutrophil accumulation ([8]; mouse, i.v., 1 mg/kg, 4 hrs)
 | 0.64 µM |  |  |  |  |  | O=C(O)c1ccc(/C=C/c2ccccc2-c2cc3ccccc3o2)cc1 [NPC 18915, 4-{2-[2-(2-benzofuranyl)phenyl]-(E)-ethenyl} benzoic acid] |  |  |  |  |  |  |  |  |  | 
3.6 µM | 1.17 µM | 14.5 µM |  | 7.6 µM |  |  | O=C(O)c1ccc(/C=C/c2ccccc2-c2ccc3ccccc3c2)cc1 [NPC 18812, 4-{2-[2-(2-naphthyl)phenyl]-(E)-ethenyl}benzoic acid] | 7 mg/kg | 12% | 50% | 71% | 29% | 94% | 0.5 mg/kg |  |  | 
2.9 µM | 2.4 µM | 25.7 µM | 6.25 µM | 3.23 µM | 0.34 µM | 3 µM | O=C(O)c1ccc(/C=C/c2ccccc2-c2ccccc2)cc1 [NPC 18730, 4-[2-(biphenyl)-E-ethenyl]benzoic acid] |  | 67% | 37% | 48% | 40% |  |  | 0.8 mg/kg | 16% | 20%

Second part, the compound before the results:

SMILES | IC50 [1] | IC50 [2] | IC50 [3] | IC50 (neutrophils [4]) | IC50 (neutrophils [5]) | IC50 (neutrophils [6]) | IC50 (neutrophils [7]) | ED50 [8, 10] | % Inhibition of neutrophil accumulation ([8]; mouse, i.v., 3 mg/kg, 4 hrs) | % Inhibition of neutrophil accumulation ([8]; mouse, i.v., 10 mg/kg, 4 hrs) | % Inhibition of neutrophil accumulation ([8]; mouse, i.v., 30 mg/kg, 4 hrs) | Reverse Passive Arthus % Inhibition [9] | % Inhibition of neutrophil accumulation ([8]; mouse, i.v., 60 mg/kg, 4 hrs) | ED50 [9] | ED50 ([8]; 4 h) | % Inhibition of neutrophil accumulation ([8]; mouse, i.v., 0.3 mg/kg, 4 hrs) | % Inhibition of neutrophil accumulation ([8]; mouse, i.v., 1 mg/kg, 4 hrs)
O=C(O)c1ccc(/C=C/c2ccccc2-c2ccc(Cl)c(Cl)c2)cc1 [NPC 18818, 4-{2-[2-(3,4-dichlorophenyl)phenyl]-(E)-ethenyl] benzoic acid] | 1.8 µM | 0.41 µM | 30 µM | 1.2 µM | 0.81 µM | 0.15 µM | 0.3 µM | < 30 mg/kg | 35% | 34% | 52% | 8% |  |  |  |  | 
O=C(O)c1ccc(CCc2ccccc2-c2ccccc2)cc1 [NPC 18731, 4-[2-(biphenyl)ethyl]benzoic acid] | 6.4 µM | 6.5 µM | 28 µM | 8.7 µM | 19.9 µM |  |  | 4 mg/kg | 22% | 44% | 59% | 40% | 59% | 0.1 mg/kg |  |  | 
O=C(O)c1ccc(C=Cc2ccccc2Oc2ccccc2)cc1 [NPC 18801, 2'-phenoxy-4-stilbenecarboxylic acid] | 6.9 µM | 0.86 µM | 52.4 µM | 7.5 µM | 0.6 µM | 0.15 µM | 0.52 µM | < 10 mg/kg | 36% | 65% | 65% | 3% |  |  |  |  | 
